Values joined by “and” are separate entries in the source; they are usually repeats but may differ in a detail not shown here. Equal entries are not always repeated.
Key:
[1] = In vitro dissolution of cyclodextrin based meloxicam compositions under non-sink conditions (standard method); format: physicochemical
Description: The following standard method was used for the determination of the solution rate of the drug compositions: In vitro dissolution properties of the cyclodextrin based meloxicam compositions were studied under non-sink conditions in two different buffer systems, pH 1.3 and 7.6, respectively and in deionised water (pH=6.6) at 37° C.
(§1) The stirring rate was 160 r.p.m. […] Sampling time intervals were 5, 10, 15, 30, 45 and 60 minutes.

[2] = In vitro rate of dissolution of meloxicam composition at pH 1.2 (table 9); format: physicochemical; settings: 37° C., 60 min
Description: The following standard method was used for the determination of the solution rate of the drug compositions: In vitro dissolution properties of the cyclodextrin based […], respectively and in deionised water (pH=6.6) at 37° C.
as §1

Dissolved meloxicam in solution ([1]; deionised water (pH = 6.6), 37° C., 5 min): 23 µg/mL | Dissolved meloxicam in solution ([1]; deionised water (pH = 6.6), 37° C., 10 min): 148 µg/mL | Dissolved meloxicam in solution ([1]; deionised water (pH = 6.6), 37° C., 15 min): 232 µg/mL | Dissolved meloxicam in solution ([1]; deionised water (pH = 6.6), 37° C., 30 min): 390 µg/mL | Dissolved meloxicam in solution ([1]; deionised water (pH = 6.6), 37° C., 45 min): 415 µg/mL | Dissolved meloxicam in solution ([1]; deionised water (pH = 6.6), 37° C., 60 min): 475 µg/mL | Dissolved meloxicam in solution ([1]; pH 1.3, 37° C., 5 min (tables 4, 11, 13)): 0.4 µg/mL and 0.30 µg/mL | Dissolved meloxicam in solution ([1]; pH 1.3, 37° C., 5 min, free meloxicam 130 mg, composition 1300 mg (table 7)): 0.45 µg/mL | Dissolved meloxicam in solution ([1]; pH 1.3, 37° C., 5 min, free meloxicam 130 mg, composition 1500 mg (tables 5, 6)): 0.45 µg/mL | Dissolved meloxicam in solution ([1]; pH 1.3, 37° C., 10 min (tables 4, 11, 13)): 0.6 µg/mL and 0.38 µg/mL | Dissolved meloxicam in solution ([1]; pH 1.3, 37° C., 10 min, free meloxicam 130 mg, composition 1300 mg (table 7)): 0.62 µg/mL | Dissolved meloxicam in solution ([1]; pH 1.3, 37° C., 10 min, free meloxicam 130 mg, composition 1500 mg (tables 5, 6)): 0.62 µg/mL | Dissolved meloxicam in solution ([1]; pH 1.3, 37° C., 15 min (tables 4, 11, 13)): 0.7 µg/mL and 0.44 µg/mL | Dissolved meloxicam in solution ([1]; pH 1.3, 37° C., 15 min, free meloxicam 130 mg, composition 1300 mg (table 7)): 0.67 µg/mL | Dissolved meloxicam in solution ([1]; pH 1.3, 37° C., 15 min, free meloxicam 130 mg, composition 1500 mg (tables 5, 6)): 0.67 µg/mL | Dissolved meloxicam in solution ([1]; pH 1.3, 37° C., 30 min (tables 4, 11, 13)): 0.7 µg/mL and 0.56 µg/mL | Dissolved meloxicam in solution ([1]; pH 1.3, 37° C., 30 min, free meloxicam 130 mg, composition 1300 mg (table 7)): 0.74 µg/mL | Dissolved meloxicam in solution ([1]; pH 1.3, 37° C., 30 min, free meloxicam 130 mg, composition 1500 mg (tables 5, 6)): 0.74 µg/mL | Dissolved meloxicam in solution ([1]; pH 1.3, 37° C., 45 min (tables 4, 11, 13)): 0.7 µg/mL and 0.59 µg/mL | Dissolved meloxicam in solution ([1]; pH 1.3, 37° C., 45 min, free meloxicam 130 mg, composition 1300 mg (table 7)): 0.73 µg/mL | Dissolved meloxicam in solution ([1]; pH 1.3, 37° C., 45 min, free meloxicam 130 mg, composition 1500 mg (tables 5, 6)): 0.73 µg/mL | Dissolved meloxicam in solution ([1]; pH 1.3, 37° C., 60 min (tables 4, 11, 13)): 0.6 µg/mL and 0.65 µg/mL | Dissolved meloxicam in solution ([1]; pH 1.3, 37° C., 60 min, free meloxicam 130 mg, composition 1300 mg (table 7)): 0.67 µg/mL | Dissolved meloxicam in solution ([1]; pH 1.3, 37° C., 60 min, free meloxicam 130 mg, composition 1500 mg (tables 5, 6)): 0.67 µg/mL | Dissolved meloxicam in solution ([1]; pH 7.6, 37° C., 5 min (tables 4, 11)): 38 µg/mL | Dissolved meloxicam in solution ([1]; pH 7.6, 37° C., 5 min, free meloxicam 130 mg, composition 1300 mg (table 7)): 38 µg/mL | Dissolved meloxicam in solution ([1]; pH 7.6, 37° C., 5 min, free meloxicam 130 mg, composition 1500 mg (tables 5, 6)): 38 µg/mL | Dissolved meloxicam in solution ([1]; pH 7.6, 37° C., 10 min (tables 4, 11)): 188 µg/mL and 218 µg/mL | Dissolved meloxicam in solution ([1]; pH 7.6, 37° C., 10 min, free meloxicam 130 mg, composition 1300 mg (table 7)): 218 µg/mL | Dissolved meloxicam in solution ([1]; pH 7.6, 37° C., 10 min, free meloxicam 130 mg, composition 1500 mg (tables 5, 6)): 218 µg/mL | Dissolved meloxicam in solution ([1]; pH 7.6, 37° C., 15 min (tables 4, 11)): 320 µg/mL | Dissolved meloxicam in solution ([1]; pH 7.6, 37° C., 15 min, free meloxicam 130 mg, composition 1300 mg (table 7)): 320 µg/mL | Dissolved meloxicam in solution ([1]; pH 7.6, 37° C., 15 min, free meloxicam 130 mg, composition 1500 mg (tables 5, 6)): 320 µg/mL | Dissolved meloxicam in solution ([1]; pH 7.6, 37° C., 30 min (tables 4, 11)): 390 µg/mL | Dissolved meloxicam in solution ([1]; pH 7.6, 37° C., 30 min, free meloxicam 130 mg, composition 1300 mg (table 7)): 390 µg/mL | Dissolved meloxicam in solution ([1]; pH 7.6, 37° C., 30 min, free meloxicam 130 mg, composition 1500 mg (tables 5, 6)): 390 µg/mL | Dissolved meloxicam in solution ([1]; pH 7.6, 37° C., 45 min (tables 4, 11)): 485 µg/mL | Dissolved meloxicam in solution ([1]; pH 7.6, 37° C., 45 min, free meloxicam 130 mg, composition 1300 mg (table 7)): 485 µg/mL | Dissolved meloxicam in solution ([1]; pH 7.6, 37° C., 45 min, free meloxicam 130 mg, composition 1500 mg (tables 5, 6)): 485 µg/mL | Dissolved meloxicam in solution ([1]; pH 7.6, 37° C., 60 min (tables 4, 11)): 550 µg/mL | Dissolved meloxicam in solution ([1]; pH 7.6, 37° C., 60 min, free meloxicam 130 mg, composition 1300 mg (table 7)): 550 µg/mL | Dissolved meloxicam in solution ([1]; pH 7.6, 37° C., 60 min, free meloxicam 130 mg, composition 1500 mg (tables 5, 6)): 550 µg/mL | meloxicam (dissolved) [2]: 0.8 µg/mL
Structure (SMILES): Cc1cnc(NC(=O)C2=C(O)c3ccccc3S(=O)(=O)N2C)s1 [free meloxicam, meloxicam]

— patent US6284269A, “Pharmaceutical compositions of meloxicam with improved solubility and bioavailability” (Hexal AG, priority 1997, dated 2001)
